Counter-ions that a name gives are not always drawn.
Key:
[1] = system: MC38 colorectal cancer cells; test: MC38 subcutaneous tumor model in C57BL/6 mice, Embodiment 2; type: in vivo; details: for Tumor volume: CBD 100 mg/kg, PAR 10 mg/kg, vitamin E 50 mg/kg, thymosin 2 mg/kg
Protocol: • 1. MC38 colorectal cancer cells were inoculated into 6-week-old female C57BL/6 mice (1×10^6 cells/mouse) to establish a subcutaneous tumor model. After the tumor volume reached 50 mm^3, the mice were grouped and administered according to the following pharmaceutical combinations: (1) control group (no administration), (2) anti-PD-1 ([…]/time) group, (3) anti-CTLA4 ([…]/time) group, (4) CBD (100 mg/kg) group, (5) CBD (100 mg/kg)+anti-CTLA4 ([…]/time) group, (6) PAR (10 mg/kg) group, (7) PAR (10 mg/kg)+anti-CTLA4 ([…]) group, (8) CBD (100 mg/kg)+PAR (10 mg/kg) group, (9) vitamin E(a-tocopherol) (50 mg/kg)+thymosin (2 mg/kg) group, (10) CBD (100 mg/kg)+vitamin E(α-tocopherol) (50 mg/kg)+thymosin (2 mg/kg) group, (11) PAR (10 mg/kg)+vitamin E(α-tocopherol) (50 mg/kg)+thymosin (2 mg/kg), (12) PAR (10 mg/kg)+CBD (100 mg/kg)+vitamin E(α-tocopherol) (50 mg/kg)+thymosin (2 mg/kg) group, (13) CBD (100 mg/kg)+vitamin E(α-tocopherol) (50 mg/kg)+thymosin (2 mg/kg)+anti-CTLA4 ([…]/time) group, (14) PAR (10 mg/kg)+vitamin E(α-tocopherol) (50 mg/kg)+thymosin (2 mg/kg)+anti-CTLA4 ([…]) group, and (15) CBD (100 mg/kg)+PAR (10 mg/kg)+vitamin E(α-tocopherol) (50 mg/kg)+thymosin (2 mg/kg)+anti-CTLA4 ([…]/time) group. The tumor weight and volume, and body weight of the mice were monitored once every 2 days. The tumor volume was calculated as follows: tumor volume (mm^3)=0.5×(length)x(width)^2. The mice were sacrificed 14 days after drug administration, and the tumors were dissected.
The dissolving mode of the pharmaceutical composition was as follows: the pharmaceutical composition was dissolved in 10% DMSO+corn oil, the mice were gavaged with the pharmaceutical composition at 100 pl/mouse, and the mice in the control group were injected with the same volume of the solvent. • 2. MC38 colorectal cancer cells were inoculated into 6-week-old female nude mice (1×10^6 cells/mouse) to establish a subcutaneous tumor model. After the tumor volume reached 50 mm^3, the mice were grouped and administered according to the following pharmaceutical combinations: (1) control group, (2) CBD (100 mg/kg)+vitamin E(α-tocopherol) (50 mg/kg)+thymosin (2 mg/kg) group, (3) PAR (10 mg/kg)+vitamin E(α-tocopherol) (50 mg/kg)+thymosin (2 mg/kg) group, and (4) PAR (10 mg/kg)+CBD (100 mg/kg)+vitamin E(α-tocopherol) (50 mg/kg)+thymosin (2 mg/kg) group. The tumor weight and volume, and the body weight of the mice were monitored once every 2 days. The tumor volume was calculated as follows: tumor volume (mm^3)=0.5×(length)x(width)^2. The mice were sacrificed 14 days after drug administration, and the tumors were dissected. (II) Experimental Results 1.

MC38 colon cancer cells = test: MC38 subcutaneous tumor model in C57BL/6 mice, Embodiment 5; type: in vivo; details: for Tumor volume: CBD 100 mg/kg, PAR 5 mg/kg, vitamin E 50 mg/kg; for therapeutic / tumor inhibition effect in words: normal mice, Embodiment 5, comparison between groups
Protocol: MC38 colon cancer cells were inoculated into 6-week-old female C57BL/6 mice (1×10^6 cells/mouse) to establish a subcutaneous tumor model. After the tumor volume reached 50 mm^3, the mice were grouped and administered with the following pharmaceutical combinations: (1) control group (no drug administration), (2) anti-PD-1 ([…] per time) group, (3) vitamin E(α-tocopherol) (50 mg/kg) group, (4) CBD (100 mg/kg) group, (5) CBD (100 mg/kg)+vitamin E(α-tocopherol) (50 mg/kg) group, (6) PAR (5 mg/kg) group, (7) PAR (5 mg/kg)+vitamin E(α-tocopherol) (50 mg/kg) group, (8) CBD (100 mg/kg)+PAR (5 mg/kg) group, and (9) PAR (5 mg/kg)+CBD (100 mg/kg)+vitamin E(α-tocopherol) (50 mg/kg) group.
The tumor weight, tumor volume, and mouse body weight were monitored once every 2 days. The tumor volume was calculated as follows: tumor volume (mm^3)=0.5×(length)×(width)^2. The mice were sacrificed 14 days after drug administration, and the tumors were dissected.
The dissolving mode of the pharmaceutical composition was as follows: the pharmaceutical composition was dissolved in 10% DMSO+corn oil, the mice were gavaged with the pharmaceutical composition at 100 μl/mice, and the mice in the control group were injected with the same volume of the solvent.

PD-L1 in tumor cells = test: Expression of PD-L1 in tumor cells with paroxetine hydrochloride; type: cell-based; details: no method or data given

Row | SMILES | Tumor volume ([1]; Day 0) | Tumor volume ([1]; Day 2) | Tumor volume ([1]; Day 4) | Tumor volume ([1]; Day 6) | Tumor volume ([1]; Day 8) | Tumor volume ([1]; Day 10) | Tumor volume ([1]; Day 12) | Tumor volume ([1]; Day 14) | Tumor volume ([1]; Day 16) | therapeutic / tumor inhibition effect in words ([1]; normal mice, Embodiment 2, comparison between groups) | Tumor volume (MC38 colon cancer cells; Day 0) | Tumor volume (MC38 colon cancer cells; Day 4) | Tumor volume (MC38 colon cancer cells; Day 6) | Tumor volume (MC38 colon cancer cells; Day 8) | Tumor volume (MC38 colon cancer cells; Day 10) | Tumor volume (MC38 colon cancer cells; Day 12) | Tumor volume (MC38 colon cancer cells; Day 14) | Tumor volume (MC38 colon cancer cells; Day 16) | therapeutic / tumor inhibition effect in words (MC38 colon cancer cells) | expression of PD-L1 in tumor cells (PD-L1 in tumor cells)
1 | Fc1ccc([C@@H]2CCNC[C@H]2COc2ccc3c(c2)OCO3)cc1 [PAR, paroxetine hydrochloride] | 0 mm^3 | 43.63 mm^3 | 68.09 mm^3 | 83.54 mm^3 | 177.63 mm^3 | 263.45 mm^3 | 393.48 mm^3 | 510.89 mm^3 | 608.61 mm^3 | equivalent therapeutic effects | 0 mm^3 | 44.74 mm^3 | 61.50 mm^3 | 85.83 mm^3 | 136.25 mm^3 | 176.62 mm^3 | 262.06 mm^3 | 302.90 mm^3 | equivalent therapeutic effects | reduces the expression of PD-L1
2 | Cc1c(C)c2c(c(C)c1O)CC[C@@](C)(CCC[C@H](C)CCC[C@H](C)CCCC(C)C)O2 [VE, a-tocopherol] |  |  |  |  |  |  |  |  |  |  | 0 mm^3 | 58.77 mm^3 | 124.89 mm^3 | 191.75 mm^3 | 284.59 mm^3 | 459.67 mm^3 | 532.81 mm^3 | 624.47 mm^3 | no significant therapeutic effect | 

Source: US12599596B2, “Anti-tumor pharmaceutical composition based on immune checkpoint blockade and use thereof” (Shanghai Hui Tian Jin Ze Biotech Co., Ltd., priority 2023, dated 2026)
